Results taken from ChEMBL document CHEMBL1201862, “PubChem BioAssay data set” (2004).
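48-hour exposure; five concentrations; linearly interpolated endpoints. GI50 marks 50% less growth.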 The source made the active and inactive calls. Cut-off read from the data, not from the text of the source: active = GI50 up to about 1.1 µM and inactive = higher.

Legend:
Experiment in all cases: NCI anticancer screen, dose series, 48 h
SF-539 = test system: SF-539
DMS-114 = test system: DMS-114
OVCAR-4 = test system: OVCAR-4
RXF 393 = test system: RXF 393
SNB-19 = test system: SNB-19
SF-295 = test system: SF-295
LOX IMVI = test system: LOX IMVI
HL-60 = test system: HL-60
K562 = test system: K562
SW-620 = test system: SW-620
COLO 205 = test system: COLO 205
ACHN = test system: ACHN
786-0 = test system: 786-0
NCI-H23 = test system: NCI-H23
KM12 = test system: KM12
SN12C = test system: SN12C
OVCAR-8 = test system: OVCAR-8
UO-31 = test system: UO-31
NCI-H460 = test system: NCI-H460
HOP-92 = test system: HOP-92
DMS-273 = test system: DMS-273
DLD-1 = test system: DLD-1
HT-29 = test system: HT-29
A498 = test system: A498
OVCAR-3 = test system: OVCAR-3
NCI-H226 = test system: NCI-H226
UACC-257 = test system: UACC-257
LXFL 529 = test system: LXFL 529
RPMI-8226 = test system: RPMI-8226
UACC-62 = test system: UACC-62
KM-20L2 = test system: KM-20L2
M14 = test system: M14
SK-MEL-2 = test system: SK-MEL-2
CAKI-1 = test system: CAKI-1
SK-MEL-28 = test system: SK-MEL-28
EKVX = test system: EKVX
HCT-116 = test system: HCT-116
MOLT-4 = test system: MOLT-4
CCRF-CEM = test system: CCRF-CEM
SNB-75 = test system: SNB-75
SNB-78 = test system: SNB-78
SK-MEL-5 = test system: SK-MEL-5
NCI-H522 = test system: NCI-H522
HCT-15 = test system: HCT-15
HCC 2998 = test system: HCC 2998
SK-OV-3 = test system: SK-OV-3
A549 = test system: A549
M19-MEL = test system: M19-MEL
OVCAR-5 = test system: OVCAR-5
U-251 = test system: U-251
XF498 = test system: XF498
TK-10 = test system: TK-10
IGROV-1 = test system: IGROV-1
Malme-3M = test system: Malme-3M
SR = test system: SR
SF-268 = test system: SF-268
HOP-62 = test system: HOP-62

## Cc1nc2c(s/c(=N\N)n2-c2ccccc2)c(=O)[nH]1
SF-539
  GI50: > 100 µM (inactive)
DMS-114
  GI50: > 100 µM (inactive)
OVCAR-4
  GI50: > 100 µM (inactive)
RXF 393
  GI50: > 100 µM (inactive)
SNB-19
  GI50: > 100 µM (inactive)
SF-295
  GI50: > 100 µM (inactive)
LOX IMVI
  GI50: > 100 µM (inactive)
HL-60
  GI50: > 100 µM (inactive)
K562
  GI50: > 100 µM (inactive)
SW-620
  GI50: > 100 µM (inactive)
COLO 205
  GI50: > 100 µM (inactive)
ACHN
  GI50: > 100 µM (inactive)
786-0
  GI50: > 100 µM (inactive)
NCI-H23
  GI50: > 100 µM (inactive)
KM12
  GI50: > 100 µM (inactive)
SN12C
  GI50: > 100 µM (inactive)
OVCAR-8
  GI50: > 100 µM (inactive)
UO-31
  GI50: > 100 µM (inactive)
NCI-H460
  GI50: > 100 µM (inactive)
HOP-92
  GI50: > 100 µM (inactive)
DMS-273
  GI50: > 100 µM (inactive)
DLD-1
  GI50: > 100 µM (inactive)
HT-29
  GI50: > 100 µM (inactive)
A498
  GI50: > 100 µM (inactive)
OVCAR-3
  GI50: > 100 µM (inactive)
NCI-H226
  GI50: > 100 µM (inactive)
UACC-257
  GI50: > 100 µM (inactive)
LXFL 529
  GI50: > 100 µM (inactive)
RPMI-8226
  GI50: > 100 µM (inactive)
UACC-62
  GI50: > 100 µM (inactive)
KM-20L2
  GI50: > 100 µM (inactive)
M14
  GI50: > 100 µM (inactive)
SK-MEL-2
  GI50: > 100 µM (inactive)
CAKI-1
  GI50: > 100 µM (inactive)
SK-MEL-28
  GI50: > 100 µM (inactive)
EKVX
  GI50: > 100 µM (inactive)
HCT-116
  GI50: > 100 µM (inactive)
MOLT-4
  GI50: > 100 µM (inactive)
CCRF-CEM
  GI50: > 100 µM (inactive)
SNB-75
  GI50: > 100 µM (inactive)
SNB-78
  GI50: > 100 µM (inactive)
SK-MEL-5
  GI50: > 100 µM (inactive)
NCI-H522
  GI50: > 100 µM (inactive)
HCT-15
  GI50: > 100 µM
HCC 2998
  GI50: > 100 µM (inactive)
SK-OV-3
  GI50: > 100 µM (inactive)
A549
  GI50: > 100 µM (inactive)
M19-MEL
  GI50: > 100 µM (inactive)
OVCAR-5
  GI50: > 100 µM (inactive)
U-251
  GI50: > 100 µM (inactive)
XF498
  GI50: > 100 µM (inactive)
TK-10
  GI50: > 100 µM (inactive)
IGROV-1
  GI50: > 100 µM (inactive)
Malme-3M
  GI50: > 100 µM (inactive)
SR
  GI50: > 100 µM (inactive)
SF-268
  GI50: > 100 µM (inactive)
HOP-62
  GI50: > 100 µM (inactive)

## Cn1c(=O)c2c(nc(C[N+]3([O-])CCOCC3)n2C)n(C)c1=O
SF-539
  GI50: > 100 µM (inactive)
DMS-114
  GI50: 0.45 µM (active)
RXF 393
  GI50: > 100 µM (inactive)
SNB-19
  GI50: > 100 µM (inactive)
LOX IMVI
  GI50: > 100 µM (inactive)
HL-60
  GI50: > 100 µM (inactive)
K562
  GI50: > 100 µM (inactive)
SW-620
  GI50: > 100 µM (inactive)
COLO 205
  GI50: > 100 µM (inactive)
ACHN
  GI50: > 100 µM (inactive)
786-0
  GI50: > 100 µM (inactive)
NCI-H23
  GI50: > 100 µM (inactive)
KM12
  GI50: > 100 µM (inactive)
SN12C
  GI50: > 100 µM (inactive)
OVCAR-8
  GI50: > 100 µM (inactive)
UO-31
  GI50: > 100 µM (inactive)
NCI-H460
  GI50: > 100 µM (inactive)
HOP-92
  GI50: > 100 µM (inactive)
DMS-273
  GI50: > 100 µM (inactive)
DLD-1
  GI50: > 100 µM (inactive)
HT-29
  GI50: > 100 µM (inactive)
OVCAR-3
  GI50: > 100 µM (inactive)
NCI-H226
  GI50: > 100 µM (inactive)
UACC-257
  GI50: > 100 µM (inactive)
LXFL 529
  GI50: > 100 µM (inactive)
RPMI-8226
  GI50: > 100 µM (inactive)
UACC-62
  GI50: > 100 µM (inactive)
KM-20L2
  GI50: > 100 µM (inactive)
M14
  GI50: > 100 µM (inactive)
SK-MEL-2
  GI50: > 100 µM (inactive)
CAKI-1
  GI50: 36.9 µM (inactive)
SK-MEL-28
  GI50: > 100 µM (inactive)
EKVX
  GI50: > 100 µM (inactive)
HCT-116
  GI50: 7.98 µM (inactive)
MOLT-4
  GI50: > 100 µM (inactive)
CCRF-CEM
  GI50: > 100 µM (inactive)
SNB-75
  GI50: 63.5 µM (inactive)
SK-MEL-5
  GI50: > 100 µM (inactive)
NCI-H522
  GI50: > 100 µM (inactive)
HCT-15
  GI50: > 100 µM
HCC 2998
  GI50: > 100 µM (inactive)
SK-OV-3
  GI50: > 100 µM (inactive)
A549
  GI50: > 100 µM (inactive)
M19-MEL
  GI50: > 100 µM (inactive)
OVCAR-5
  GI50: > 100 µM (inactive)
U-251
  GI50: > 100 µM (inactive)
XF498
  GI50: > 100 µM (inactive)
TK-10
  GI50: > 100 µM (inactive)
IGROV-1
  GI50: > 100 µM (inactive)
Malme-3M
  GI50: > 100 µM (inactive)
SR
  GI50: > 100 µM (inactive)
SF-268
  GI50: > 100 µM (inactive)
HOP-62
  GI50: > 100 µM (inactive)
